US4450269A, “Mono-5-substituted-3-chloro-4H-1,2,6-thiadiazin-4-one antifungal agents” (FMC Corporation, priority 1980, dated 1984)
Where two headings read alike, the source gives them in different places.

Experiments:
Erysiphe polygoni = assay: Spore germination test; assay type: cell-based; conditions: EP, 48 hours
How it was run: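 Compound in acetone was mixed into water agar at final 40, 10, 2.5 and 1 ppm and poured into quadrant dishes. Quadrants received spore suspension, while Erysiphe polygoni and Uromyces phaseoli spores were brushed on from infected leaves. After 48 h at 24 °C, the percentage of germinated spores was converted to a germination rating.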

Pyricularia oryzae = assay type: cell-based; conditions: PO, 48 hours
Phytophthora infestans = assay: whole plant or invertebrate; assay type: in vivo; conditions: Phytophthora infestans, in Solanum lycopersicum, foliar, read-out: Percent Disease Control, foliar, tomato late blight, 150 ppm, protective

| SMILES | Spore Germination Rating (Erysiphe polygoni; 1.0 ppm) | Spore Germination Rating (Erysiphe polygoni; 2.5 ppm) | Spore Germination Rating (Erysiphe polygoni; 10 ppm) | Spore Germination Rating (Erysiphe polygoni; 40 ppm) | Spore Germination Rating (Pyricularia oryzae; 1.0 ppm) | Spore Germination Rating (Pyricularia oryzae; 2.5 ppm) | Spore Germination Rating (Pyricularia oryzae; 10 ppm) | Spore Germination Rating (Pyricularia oryzae; 40 ppm) | pest or weed control at 150 ppm (Phytophthora infestans) [%] |
| --- | --- | --- | --- | --- | --- | --- | --- | --- | --- |
| O=c1c(Cl)nsnc1Oc1c(Cl)cccc1Cl [Compound 18, 3-chloro-5-(2,6-dichlorophenoxy)-4H--1,2,6-thiadiazin-4-one] | 2 (40-60) | 1 (10-40) | 0 (0-10) | 0 (0-10) | 4 (80-100) | 2 (40-60) | 0 (0-10) | 0 (0-10) | 50 |
| O=C(O)Cc1ccccc1Oc1nsnc(Cl)c1=O [Compound 45, 3-(2-carboxymethylphenoxy)-5-chloro-4H--1,2,6-thiadiazin-4-one] | 4 (80-100) | 4 (80-100) | 4 (80-100) | 2 (40-60) | 4 (80-100) | 4 (80-100) | 4 (80-100) | 1 (10-40) | 0 |
| O=c1c(Cl)nsnc1Oc1cccc(Cl)c1 [Compound 13, 3-chloro-5-(3-chlorophenoxy)-4H--1,2,6-thiadiazin-4-one] | 4 (80-100) | 2 (40-60) | 0 (0-10) | 0 (0-10) | 3 (60-80) | 0 (0-10) | 0 (0-10) | 0 (0-10) | 98 |
| O=C(O)c1ccc(Oc2nsnc(Cl)c2=O)cc1 [Compound 50, 3-(4-carboxyphenoxy)-5-chloro-4H--1,2,6-thiadiazin-4-one] | 4 (80-100) | 4 (80-100) | 4 (80-100) | 2 (40-60) | 4 (80-100) | 4 (80-100) | 4 (80-100) | 0 (0-10) | 0 |
| CC(=O)Nc1ccc(Oc2nsnc(Cl)c2=O)cc1 [Compound 8, 5-(4-acetylaminophenoxy)-3-chloro-4H--1,2,6-thiadiazin-4-one] | 4 (80-100) | 4 (80-100) | 4 (80-100) | 2 (40-60) | 4 (80-100) | 3 (60-80) | 0 (0-10) | 0 (0-10) | 90 |
| Cc1cc(Cl)c(Oc2nsnc(Cl)c2=O)cc1C [Compound 58, 3-chloro-5-[(2-chloro-4,5-dimethyl)phenoxy]-4H--1,2,6-thiadiazin-4-one] | 4 (80-100) | 0 (0-10) | 0 (0-10) | 0 (0-10) | 4 (80-100) | 0 (0-10) | 0 (0-10) | 0 (0-10) | 0 |
| N#CCc1ccc(Oc2nsnc(Cl)c2=O)cc1 [Compound 46, 3-chloro-5-[(4-cyanomethyl)-phenoxy]4H--1,2,6-thiadiazin-4-one] | 4 (80-100) | 4 (80-100) | 4 (80-100) | 4 (80-100) | 0 (0-10) | 0 (0-10) | 0 (0-10) | 0 (0-10) | 75 |
| O=c1c(Cl)nsnc1Oc1ccc(Cl)cc1 [Compound 12, 3-chloro-5-(4-chlorophenoxy)-4H--1,2,6-thiadiazin-4-one] | 4 (80-100) | 4 (80-100) | 2 (40-60) | 0 (0-10) | 0 (0-10) | 0 (0-10) | 0 (0-10) | 0 (0-10) | 100 |
| CNC(=O)Nc1ccc(Oc2nsnc(Cl)c2=O)cc1 [Compound 28, 3-chloro-5-[4-(3-methylureido)-phenoxy]-4H--1,2,6-thiadiazin-4-one] | 4 (80-100) | 4 (80-100) | 4 (80-100) | 4 (80-100) | 4 (80-100) | 4 (80-100) | 4 (80-100) | 1 (10-40) | 90 |
| CC(=O)c1cccc(Oc2nsnc(Cl)c2=O)c1 [Compound 48, 3-(3-acetylphenoxy)-5-chloro-4H--1,2,6-thiadiazin-4-one] | 4 (80-100) | 4 (80-100) | 2 (40-60) | 2 (40-60) | 3 (60-80) | 1 (10-40) | 0 (0-10) | 0 (0-10) | 98 |
| O=c1c(Cl)nsnc1Oc1ccccc1 [Compound 2, 3-chloro-5-phenoxy-4H--1,2,6-thiadiazin-4-one] | 4 (80-100) | 4 (80-100) | 3 (60-80) | 1 (10-40) | 3 (60-80) | 1 (10-40) | 0 (0-10) | 0 (0-10) | 0 |
| Cc1ccccc1Oc1nsnc(Cl)c1=O [Compound 22, 3-chloro-5-(2-methylphenoxy)-4H--1,2,6-thiadiazin-4-one] | 4 (80-100) | 4 (80-100) | 3 (60-80) | 1 (10-40) | 2 (40-60) | 0 (0-10) | 0 (0-10) | 0 (0-10) | 0 |
| CS(=O)(=O)c1ccc(Oc2nsnc(Cl)c2=O)cc1 [Compound 41, 3-chloro-5-[(4-methylsulfonyl)phenoxy]-4H--1,2,6-thiadiazin-4-one] | 2 (40-60) | 2 (40-60) | 1 (10-40) | 0 (0-10) | 4 (80-100) | 3 (60-80) | 0 (0-10) | 0 (0-10) | 90 |
| CCOC(=O)c1ccc(Oc2nsnc(Cl)c2=O)cc1 [Compound 7, 3-chloro-5-(4-ethoxycarbonylphenoxy)-4H--1,2,6-thiadiazin-4-one] | 4 (80-100) | 3 (60-80) | 2 (40-60) | 0 (0-10) | 1 (10-40) | 1 (10-40) | 1 (10-40) | 1 (10-40) | 100 |
| O=C(Nc1ccccc1)Nc1ccc(Oc2nsnc(Cl)c2=O)cc1 [Compound 29, 3-chloro-5-[4-(3-phenylureido)-phenoxy]-4H--1,2,6-thiadiazin-4-one] | 4 (80-100) | 4 (80-100) | 4 (80-100) | 1 (10-40) | 4 (80-100) | 4 (80-100) | 4 (80-100) | 2 (40-60) | 100 |
| O=c1c(Cl)nsnc1Oc1ccc(F)cc1 [Compound 11, 3-chloro-5-(4-fluorophenoxy)-4H--1,2,6-thiadiazin-4-one] | 0 (0-10) | 0 (0-10) | 0 (0-10) | 0 (0-10) | 3 (60-80) | 0 (0-10) | 0 (0-10) | 0 (0-10) | 100 |
| CCCCOc1ccc(Oc2nsnc(Cl)c2=O)cc1 [Compound 6, 3-chloro-5-(4-n-butoxyphenoxy)-4H--1,2,6-thiadiazin-4-one] | 0 (0-10) | 0 (0-10) | 0 (0-10) | 0 (0-10) | 2 (40-60) | 1 (10-40) | 2 (40-60) | 0 (0-10) | 0 |
| Cc1ccc(Oc2nsnc(Cl)c2=O)c(Br)c1 [Compound 57, 3-[(2-bromo-4-methyl)-phenoxy]-5-chloro-4H--1,2,6-thiadiazin-4-one] | 4 (80-100) | 0 (0-10) | 0 (0-10) | 0 (0-10) | 0 (0-10) | 2 (40-60) | 0 (0-10) | 0 (0-10) | 0 |
| Cc1cc(Cl)ccc1Oc1nsnc(Cl)c1=O [Compound 55, 3-chloro-5-(4-chloro-2-methylphenoxy)-4H--1,2,6-thiadiazin-4-one] | 1 (10-40) | 0 (0-10) | 0 (0-10) | 1 (10-40) | 1 (10-40) | 0 (0-10) | 0 (0-10) | 0 (0-10) | 90 |
| CC(=O)c1ccc(Oc2nsnc(Cl)c2=O)cc1 [Compound 47, 3-(4-acetylphenoxy)-5-chloro-4H--1,2,6-thiadiazin-4-one] | 4 (80-100) | 4 (80-100) | 4 (80-100) | 1 (10-40) | 1 (10-40) | 0 (0-10) | 0 (0-10) | 0 (0-10) | 95 |
| Cc1cccc(Oc2nsnc(Cl)c2=O)c1 [Compound 21, 3-chloro-5-(3-methylphenoxy)-4H--1,2,6-thiadiazin-4-one] | 4 (80-100) | 3 (60-80) | 2 (40-60) | 0 (0-10) | 4 (80-100) | 0 (0-10) | 0 (0-10) | 0 (0-10) | 50 |
| O=C(Nc1ccccc1)Oc1ccc(Oc2nsnc(Cl)c2=O)cc1 [Compound 37, 3-chloro-5-[4-(phenylaminocarbonyloxy)phenoxy]-4H-1,2,6,-thiadiazin-4-one] | 4 (80-100) | 4 (80-100) | 4 (80-100) | 3 (60-80) | 4 (80-100) | 3 (60-80) | 0 (0-10) | 2 (40-60) | 0 |
